Assay results: US11591311B2, “3-oxo-6-heteroaryl-2-phenyl-2,3-dihydropyridazine-4-carboxamides” (priority 2017, dated 2023)
pIC50: −log10 of the molar value.

The compounds below were run against T1, AHR (Homo sapiens, UniProt P35869) (assay: In vitro assay 1: AHR-luc transactivation assay, antagonism in human cell line (U87 glioblastoma cells prestimulated with kynurenic acid)).
T1 construct: U87 glioblastoma cells (ATCC) endogenously expressing AHR; host or cells: U87 glioblastoma cells, stably transfected with DRE-firefly luciferase and renilla reporter constructs
T1 sequence (P35869 11-848): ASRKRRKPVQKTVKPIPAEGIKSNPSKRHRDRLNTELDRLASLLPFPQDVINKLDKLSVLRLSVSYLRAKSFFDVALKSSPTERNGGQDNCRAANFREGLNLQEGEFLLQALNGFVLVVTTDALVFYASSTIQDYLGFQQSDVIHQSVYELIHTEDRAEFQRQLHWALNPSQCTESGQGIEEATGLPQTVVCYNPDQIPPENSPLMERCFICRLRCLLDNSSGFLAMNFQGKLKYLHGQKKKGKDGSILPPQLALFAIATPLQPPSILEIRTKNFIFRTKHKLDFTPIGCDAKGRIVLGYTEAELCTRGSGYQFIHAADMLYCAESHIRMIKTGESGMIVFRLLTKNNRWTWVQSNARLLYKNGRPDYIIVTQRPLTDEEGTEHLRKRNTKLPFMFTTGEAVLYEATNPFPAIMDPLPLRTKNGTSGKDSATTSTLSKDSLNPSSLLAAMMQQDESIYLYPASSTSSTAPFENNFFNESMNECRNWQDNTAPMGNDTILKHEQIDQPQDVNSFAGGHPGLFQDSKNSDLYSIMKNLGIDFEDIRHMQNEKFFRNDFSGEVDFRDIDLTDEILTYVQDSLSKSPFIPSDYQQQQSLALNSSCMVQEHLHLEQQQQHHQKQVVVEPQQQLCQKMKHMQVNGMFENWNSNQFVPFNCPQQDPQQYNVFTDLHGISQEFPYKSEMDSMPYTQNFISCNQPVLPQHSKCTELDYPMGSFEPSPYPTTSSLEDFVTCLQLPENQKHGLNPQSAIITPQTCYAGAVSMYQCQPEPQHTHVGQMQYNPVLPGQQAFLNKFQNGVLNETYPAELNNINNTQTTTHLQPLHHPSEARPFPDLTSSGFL
Assay type: cell-based
Protocol: Transactivation Assay in Human Cell Line (In Vitro Assays 1 and 2)
Transactivation assays were carried out in U87 glioblastoma cells (ATCC) endogenously expressing AHR. In addition the cells were stably transfected with an AHR inducible firefly luciferase reporter gene construct that carried AHR-binding sites (DRE) in its promoter and a renilla reporter gene construct with constitutively active promoter. Kynurenic acid is an endogenous AHR activating ligand and was used to prestimulate test cells prior to testing the antagonistic properties of compounds.
In Vitro Assay 1: Antagonism in Human Cell Line
Cells in medium (tryptophan free RPMI, 1% FCS, 2 mM Glutamine) supplemented with 150 μM kynurenic acid were grown for 20 hours in absence (negative control) or presence of increasing concentrations of test compounds (typical dilutions: 72 pmol/L, 0.25 nmol/L, 0.89 nmol/L; 3.1 nmol/L, 11 nmol/L, 38 nmol/L, 130 nmol/L, 470 nmol/L, 1.6 μmol/L, 5.7 μmol/L and 20 μmol/L in duplicates). As positive inhibition control cells supplemented with 150 μM kynurenic acid were incubated in presence of 5 μM Staurosporin. Normalization was done by positive and negative controls.
Firefly luciferase and Renilla activity was determined by the DualGlo Luciferase Assay System (Promega, #2920). Renilla activity was used to assess toxic effects of compounds.

Compared with `C[C@@H](CO)NC(=O)c1cc(-c2ccc(C(F)(F)F)nc2)nn(-c2ccc(F)c(F)c2)c1=O` [Example 3, 2-(3,4-Difluorophenyl)-N-[(2S)-1-hydroxypropan-2-yl]-3-oxo-6-[6-(trifluoromethyl)pyridin-3-yl]-2,3-dihydropyridazine-4-carboxamide], `C[C@@H](CO)NC(=O)c1cc(-c2ccc(C(F)(F)F)cn2)nn(-c2cccc(F)c2)c1=O` [Example 25, 2-(3-Fluorophenyl)-N-[(2S)-1-hydroxypropan-2-yl]-3-oxo-6-[5-(trifluoromethyl)pyridin-2-yl]-2,3-dihydropyridazine-4-carboxamide] is 0.86 log units higher in pIC50: 6.21 for the first, 7.07 for the second.

First: Cc1ccc(-c2cc(C(=O)N[C@@H](C)CO)c(=O)n(-c3cccc(F)c3)n2)nc1 [Example 12, 2-(3-Fluorophenyl)-N-[(2S)-1-hydroxypropan-2-yl]-6-(5-methylpyridin-2-yl)-3-oxo-2,3-dihydropyridazine-4-carboxamide]
Second: C[C@@H](CO)NC(=O)c1cc(-c2ccc(Cl)cn2)nn(-c2cccc(F)c2)c1=O [Example 24, 6-(5-Chloropyridin-2-yl)-2-(3-fluorophenyl)-N-[(2S)-1-hydroxypropan-2-yl]-3-oxo-2,3-dihydropyridazine-4-carboxamide]
The pIC50 of the first is 0.48 log units lower: 5.97 for the first, 6.45 for the second. The second is the more potent here.

`C[C@H](NC(=O)c1cc(-c2cnc(C(F)(F)F)nc2)nn(-c2cccc(F)c2)c1=O)C(C)(C)O` [Example 14, 2-(3-Fluorophenyl)-N-[(2S)-3-hydroxy-3-methylbutan-2-yl]-3-oxo-6-[2-(trifluoromethyl)pyrimidin-5-yl]-2,3-dihydropyridazine-4-carboxamide] and `C[C@H](O)[C@H](C)NC(=O)c1cc(-c2cnc(C(F)(F)F)nc2)nn(-c2cccc(F)c2)c1=O` [Example 16, 2-(3-Fluorophenyl)-N-[(2S,3S)-3-hydroxybutan-2-yl]-3-oxo-6-[2-(trifluoromethyl)pyrimidin-5-yl]-2,3-dihydropyridazine-4-carboxamide] are within 0.2 log units of each other in pIC50: 6.66 for the first, 6.77 for the second.

First: O=C(NC[C@H](O)C(F)F)c1cc(-c2cnc(C(F)(F)F)nc2)nn(-c2cccc(F)c2)c1=O [Example 15, N-[(2S)-3,3-Difluoro-2-hydroxypropyl]-2-(3-fluorophenyl)-3-oxo-6-[2-(trifluoromethyl)pyrimidin-5-yl]-2,3-dihydropyridazine-4-carboxamide]
Second: CC(C)(O)CNC(=O)c1cc(-c2cnc(C(F)(F)F)nc2)nn(-c2cccc(F)c2)c1=O [Example 17, 2-(3-Fluorophenyl)-N-(2-hydroxy-2-methylpropyl)-3-oxo-6-[2-(trifluoromethyl)pyrimidin-5-yl]-2,3-dihydropyridazine-4-carboxamide]
The pIC50 of the first is 0.82 log units higher: 6.51 for the first, 5.69 for the second.

Going from `COc1ccc(-c2cc(C(=O)N[C@H](C)C(C)(C)O)c(=O)n(-c3cccc(F)c3)n2)cn1` [Example 20, 2-(3-Fluorophenyl)-N-[(2R)-3-hydroxy-3-methylbutan-2-yl]-6-(6-methoxypyridin-3-yl)-3-oxo-2,3-dihydropyridazine-4-carboxamide] to `Cc1ccc(-c2cc(C(=O)N[C@@H](C)CO)c(=O)n(-c3cccc(F)c3)n2)cn1` [Example 23, 2-(3-Fluorophenyl)-N-[(2S)-1-hydroxypropan-2-yl]-6-(6-methylpyridin-3-yl)-3-oxo-2,3-dihydropyridazine-4-carboxamide], the pIC50 rises from 6.29 to 6.58 (0.29 log units). The second is the more potent here.

Compared with `O=C(N[C@@H]1CSC[C@@H]1O)c1cc(-c2ccc(C(F)(F)F)nc2)nn(-c2cccc(F)c2)c1=O` [Example 26, 2-(3-Fluorophenyl)-N-[(3S,4R)-4-hydroxytetrahydrothiophen-3-yl]-3-oxo-6-[6-(trifluoromethyl)pyridin-3-yl]-2,3-dihydropyridazine-4-carboxamide], `O=C(N[C@H]1CCC[C@H]1O)c1cc(-c2ccc(C(F)F)nc2)nn(-c2cccc(F)c2)c1=O` [Example 30, 6-[6-(Difluoromethyl)pyridin-3-yl]-2-(3-fluorophenyl)-N-[(1S,2R)-2-hydroxycyclopentyl]-3-oxo-2,3-dihydropyridazine-4-carboxamide] is 2.42 log units higher in pIC50: 5.24 for the first, 7.66 for the second. The second is the more potent here.

Compared with `CC(C)(O)[C@@H](NC(=O)c1cc(-c2ccc(C(F)F)nc2)nn(-c2cccc(F)c2)c1=O)C1CC1` [Example 27, N-[(1S)-1-Cyclopropyl-2-hydroxy-2-methylpropyl]-6-[6-(difluoromethyl)pyridin-3-yl]-2-(3-fluorophenyl)-3-oxo-2,3-dihydropyridazine-4-carboxamide], `O=C(N[C@H](CO)C1CC1)c1cc(-c2ccc(C(F)F)nc2)nn(-c2cccc(F)c2)c1=O` [Example 29, N-[(1S)-1-Cyclopropyl-2-hydroxyethyl]-6-[6-(difluoromethyl)pyridin-3-yl]-2-(3-fluorophenyl)-3-oxo-2,3-dihydropyridazine-4-carboxamide] is 0.57 log units lower in pIC50: 8.39 for the first, 7.82 for the second. The first is the more potent here.

Compared with `O=C(N[C@H](CO)C(F)(F)F)c1cc(-c2ccc(C(F)F)nc2)nn(-c2cccc(F)c2)c1=O` [Example 28, 6-[6-(Difluoromethyl)pyridin-3-yl]-2-(3-fluorophenyl)-3-oxo-N-[(2R)-1,1,1-trifluoro-3-hydroxypropan-2-yl]-2,3-dihydropyridazine-4-carboxamide], `N#C[C@@H](CO)NC(=O)c1cc(-c2ccc(C(F)F)nc2)nn(-c2cccc(F)c2)c1=O` [Example 32, N-[(1S)-1-Cyano-2-hydroxyethyl]-6-[6-(difluoromethyl)pyridin-3-yl]-2-(3-fluorophenyl)-3-oxo-2,3-dihydropyridazine-4-carboxamide] is 0.93 log units lower in pIC50: 8.18 for the first, 7.25 for the second.

Compared with `O=C(NCC1(O)CCCCC1)c1cc(-c2ccc(C(F)F)nc2)nn(-c2cccc(F)c2)c1=O` [Example 31, 6-[6-(Difluoromethyl)pyridin-3-yl]-2-(3-fluorophenyl)-N-[(1-hydroxycyclohexyl)methyl]-3-oxo-2,3-dihydropyridazine-4-carboxamide], `CC(C)(O)CNC(=O)c1cc(-c2ccc(C(F)F)nc2)nn(-c2cccc(F)c2)c1=O` [Example 34, 6-[6-(Difluoromethyl)pyridin-3-yl]-2-(3-fluorophenyl)-N-(2-hydroxy-2-methylpropyl)-3-oxo-2,3-dihydropyridazine-4-carboxamide] is 0.69 log units lower in pIC50: 7.50 for the first, 6.81 for the second. The first is the more potent here.

Compared with `O=C(N[C@H]1COC[C@H]1O)c1cc(-c2ccc(C(F)F)nc2)nn(-c2cccc(F)c2)c1=O` [Example 33, 6-[6-(Difluoromethyl)pyridin-3-yl]-2-(3-fluorophenyl)-N-[(3S,4S)-4-hydroxyoxolan-3-yl]-3-oxo-2,3-dihydropyridazine-4-carboxamide], `O=C(N[C@H]1COC[C@@H]1O)c1cc(-c2ccc(C(F)F)nc2)nn(-c2cccc(F)c2)c1=O` [Example 38, 6-[6-(Difluoromethyl)pyridin-3-yl]-2-(3-fluorophenyl)-N-[(3S,4R)-4-hydroxytetrahydrofuran-3-yl]-3-oxo-2,3-dihydropyridazine-4-carboxamide] is 0.69 log units lower in pIC50: 7.12 for the first, 6.43 for the second. The first is the more potent here.

`O=C(N[C@H]1COCC[C@H]1O)c1cc(-c2ccc(C(F)F)nc2)nn(-c2cccc(F)c2)c1=O` [Example 35, 1,5-Anhydro-2,4-dideoxy-2-[({6-[6-(difluoromethyl)pyridin-3-yl]-2-(3-fluorophenyl)-3-oxo-2,3-dihydropyridazin-4-yl}carbonyl)amino]-D-erythro-pentitol] and `O=C(N[C@H]1COCC[C@@H]1O)c1cc(-c2ccc(C(F)F)nc2)nn(-c2cccc(F)c2)c1=O` [Example 37, 1,5-Anhydro-2,4-dideoxy-2-[({6-[6-(difluoromethyl)pyridin-3-yl]-2-(3-fluorophenyl)-3-oxo-2,3-dihydropyridazin-4-yl}carbonyl)amino]-L-threo-pentitol] are within 0.2 log units of each other in pIC50: 6.76 for the first, 6.57 for the second.

`O=C(NC(CO)C1CCOC1)c1cc(-c2ccc(C(F)F)nc2)nn(-c2cccc(F)c2)c1=O` (centres unmarked) [Example 36, 6-[6-(Difluoromethyl)pyridin-3-yl]-2-(3-fluorophenyl)-N-[2-hydroxy-1-(tetrahydrofuran-3-yl)ethyl]-3-oxo-2,3-dihydropyridazine-4-carboxamide] gave a pIC50 of 6.71.
